From patent US6413948B1, “Pharmaceutical compositions and methods of effecting a neuronal activity in an animal using naaladase inhibitors” (Guilford Pharmaceuticals Inc., priority 1996, dated 2002)

Columns and labels:
[1] = test system: rats which had sustained dynorphin-induced spinal cord injury; assay: In vivo assay on dynorphin-induced spinal cord injury; parameters: species or system Sprague-Dawley rats
Experimental: Dynorphin-induced spinal cord injury was performed according to Long et al., JPET, Vol. 269, No. 1, pp. 358-366 (1993). In brief, spinal subarachnoid injections were delivered using 30-gauge needles inserted between the L4-L5 vertebrae of male Sprague-Dawley rats (300-350 g). The rats were anesthetized with halothane and dorsal midline incisions were made immediately rostral to the pelvic girdle. By using the vertebral processes as guides, the needle was advanced to pass into the subarachnoid space surrounding the cauda equina. Correct needle pement was verified by CSF from the needle after its insertion. […] After injections, the incisions were treated with the topical antibacterial furazolidone and closed with wound clips. […]
Neurological function was evaluated using a 5-point ordinal scale, with scores being assigned as follows: 4=normal motor function; 3=mild paraparesis, with the ability to support weight and walk with impairment; 2=paraparesis, with the ability to make walking movements without fully supporting weight; 1=severe paraparesis, in which rats could make limited hind limb movement, but not walking movement; and 0=flaccid paralysis, with complete absence of any hind limb movement. […]
Differences in the neurological scores among treatment groups were determined by means of the Mann-Whitney U test or the Kruskal-Wallis test.

cortical cell cultures [2] = assay: In vitro assay of NAALADase inhibitors on ischemia (potassium cyanide and 2-deoxyglucose, LDH release); type: cell-based, rats
Experimental: The methods for this assay are described in detail below.
Dissociated cortical cell cultures are prepared using the papain-dissociation method of Heuttner and Baughman (1986) as modified by Murphy and Baraban (1990). […] Fetuses of embryonic day 17 are removed from timed pregnancy rats (Harlan Sprague Dawley). The cortex is rapidly dissected out in Dulbecco's phosphate-buffered saline, stripped of meninges, and incubated in a papain solution for 15 minutes at 37° C. The tissue is then mechanically triturated and pelleted at 500 g (1000-2000 rpm on swinging bucket Beckman). The pellet is resuspended in a DNAase solution, triturated with a 10 ml pipette ×15-20, layered over a “10×10” solution containing albumin and trypsin inhibitor (see TABLE VII for an example of a “10×10” solution), repelleted, and resuspended in a plating medium containing 10% fetal bovine serum (HyClone A-1111-L), 5% heat-inactivated Equine serum (HyClone A-3311-L), and 84% modified Earle's basal medium (MEM) (Gibco 51200-020) with high glucose (4.5 g/L), and 1 g/L NaHCO3. Each 24-well plate is pretreated with poly-D-lysine (0.5 ml/well of 10 μg/ml) for 1 h and rinsed with water before plating. Cultures are plated at 2.5×10^6 cells/ml with each well of a 24 well plate receiving 500 μl/well. Alternatively, 35 mm dishes can be plated at 2 ml/dish, 6 well plates at 2 ml/well, or 12 well plates at 1 ml/well. After plating, 50% of the medium is changed every 3-4 days with growth serum containing 5% heat-inactivated Equine serum (HyClone A3111-L), 95% modified Earle's basal medium (MEM)(Gibco 51200-020), and 1% L-Glutamine (Gibco 25030-081). Experiments are performed after 21 days in cultures. Cultures are maintained in a 5% CO2 atmosphere at 37° C.
Twenty-one to twenty-four days following the initial cortical cell plating, the experiment is performed. The cultures are washed three times in HEPES buffered saline solution containing no phosphate. […] At the end of 24 hours, the cultures are analyzed for release of the cytosolic enzyme lactate dehydrogenase (LDH), a standard measure of cell lysis. LDH measurements are performed according to the method of Koh and Choi, J. Neuroscience Methods (1987).

mice = assay: In vivo toxicity of NAALADase inhibitors in mice
Excerpt: The mice were subsequently observed two times per day for 5 consecutive days.

cortical cell cultures [3] = assay: In vitro assay of NAALADase inhibitors on toxicity of NAAG; type: cell-based, rats; details: inhibitor 1 μM
Experimental: Dissociated cortical cell cultures are prepared using the papain-dissociation method of Heuttner and Baughman (1986) as modified by Murphy and Baraban (1990). See TABLE VII for the Dissociated Culture Protocol as used herein. Fetuses of embryonic day 17 are removed from timed pregnancy rats (Harlan Sprague Dawley). The cortex is rapidly dissected out in Dulbecco's phosphate-buffered saline, stripped of meninges, and incubated in a papain solution for 15 minutes at 37° C. The tissue is then mechanically triturated and pelleted at 500 g (1000-2000 rpm on swinging bucket Beckman). The pellet is resuspended in a DNAase solution, triturated with a 10 ml pipette ×15-20, layered over a “10×10” solution containing albumin and trypsin inhibitor (see TABLE VII for an example of a “10×10” solution), repelleted, and resuspended in a plating medium containing 10% fetal bovine serum (HyClone A-1111-L), 5% heat-inactivated Equine serum (HyClone A-3311-L), and […] modified Earle's basal medium (MEM) (Gibco 51200-020) with high glucose (4.5 g/L), and 1 g/L NaHCO3. Each 24-well plate is pretreated with poly-D-lysine (0.5 ml/well of 10 μg/ml) for 1 h and rinsed with water before plating. Cultures are plated at 2.5×10^6 cells/ml with each well of a 24 well plate receiving 500 μl/well. Alternatively, 35 mm dishes can be plated at 2 ml/dish, 6 well plates at 2 ml/well, or 12 well plates at 1 ml/well. After plating, 50% of the medium is changed every 3-4 days with growth serum containing 5% heat-inactivated Equine serum (HyClone A3111-L), 95% modified Earle's basal medium (MEM)(Gibco 51200-020), and 1% L-Glutamine (Gibco 25030-081). Experiments are performed after 21 days in cultures. Cultures are maintained in a 5% CO2 atmosphere at 37° C. These methodologies are described in further detail below in the TABLE VII.
At the end of exposure, the cells are washed once with HEPES buffered saline solution and then replaced with serum free modified Earle's basal medium. The cultures are then returned to the CO2 incubator for 24 hour recovery.
Release of the cytosolic enzyme lactate dehydrogenase (LDH), a standard measure of cell lysis, is used to quantify injury (Koh and Choi, 1987). LDH-activity measurements are normalized to control for variability between culture preparations (Koh and Choi, 1987). […] This control measurement is subtracted from each experimental point. […] Only main effects of NAALADase inhibitors are considered; interactions between dose and condition are not examined statistically.

[4] = test system: spinal cord organotypic cultures; assay: Spinal cord culture model of ALS (THA toxicity, ChAT activity); type: cell-based, rats
Experimental: Organotypic cultures were prepared from lumbar spinal cord of 8 day old rats, as described by Rothstein et al., J. Neurochem., Vol. 65, No. 2 (1995), and Rothstein et al., Proc. Natl. Acad. Sci. USA, Vol. 90, pp. 6591-6595 (July 1993). In brief, lumbar spinal cords were removed and sliced into 300 […] sections, and five slices were placed on Millipore CM semipermeable 30-mm-diameter membrane inserts. The inserts were placed on 1 ml of culture medium in 35-mm-diameter culture wells. Culture medium consisted of 50% minimal essential medium and phosphate-free HEPES (25 mM), 25% heat-inactivated horse serum, and 25% Hanks' balanced salt solution (GIBCO) supplemented with D-glucose (25.6 mg/ml) and glutamine (2 mM), at a final pH of 7.2. Antibiotic and antifungal agents were not used. Cultures were incubated at 37° C. in 5% CO2 containing humidified environment (Forma Scientific). Culture medium, along with any added pharmacological agents, was changed twice weekly.
Drugs were incubated for an additional 13 to 20 days with the 100 μM THA. At the end of this period, cultures were collected assayed for ChAT activity as described below.
To determine choline acetyltransferase (ChAT) activity, the spinal cord tissues in each dish (five slices) were pooled and frozen (−75° C.) until assay. ChAT activity was measured radiometrically by described methods using [^3H] acetyl-CoA (Amersham; Fonnum, 1975). Protein content of tissue homogenate was determined by a Coomassi Protein Assay kit (Pierce, Rockford, Ill.).

Structure (SMILES): O=C(O)CCC(CP(=O)(O)O)C(=O)O (stereo not drawn) [2-(phosphonomethyl)pentanedioic acid]
- motor scores (in words) ([1]; co-administered with dynorphin A, 24-hour post-injection, vs vehicle, p<0.05): significant improvement in motor scores
- rats ambulatory ([1]; co-treated with dynorphin A, 24 hours post-injection, 15 rats): 73%
- % Toxicity (cortical cell cultures [2]; ischemic insult, 100 pM): 66.57 ± 4.38 (n = 5) %
- % Toxicity (cortical cell cultures [2]; ischemic insult, 1 nM): 42.31 ± 9.34 (n = 5) %
- % Toxicity (cortical cell cultures [2]; ischemic insult, 10 nM): 33.08 ± 9.62 (n = 5) %
- % Toxicity (cortical cell cultures [2]; ischemic insult, 100 nM): 30.23 ± 9.43 (n = 5) %
- % Toxicity (cortical cell cultures [2]; ischemic insult, 1 μM): 8.56 ± 8.22 (n = 5) %
- % Toxicity (cortical cell cultures [2]; time of administration: Delayed 30 Minutes): 31.49%
- % Toxicity (cortical cell cultures [2]; time of administration: Exposure & Recovery): 2.54%
- % Toxicity (cortical cell cultures [2]; time of administration: Recovery Only): 9.03%
- toxicity to mice (in words) (mice; 1 to 500 mg/kg, observed 5 days): non-toxic to mice
- Survival Rate After 5 days (%) (mice; dose 1 mg/kg): 100%
- Survival Rate After 5 days (%) (mice; dose 5 mg/kg): 100%
- Survival Rate After 5 days (%) (mice; dose 10 mg/kg): 100%
- Survival Rate After 5 days (%) (mice; dose 30 mg/kg): 100%
- Survival Rate After 5 days (%) (mice; dose 100 mg/kg): 100%
- Survival Rate After 5 days (%) (mice; dose 300 mg/kg): 100%
- Survival Rate After 5 days (%) (mice; dose 500 mg/kg): 66.7%
- % Toxicity (cortical cell cultures [3]; NAAG 3 μM): −4.71 (n = 1) %
- % Toxicity (cortical cell cultures [3]; NAAG 10 μM): −3.08 ± 0.81 (n = 3) %
- % Toxicity (cortical cell cultures [3]; NAAG 30 μM): −4.81 ± 1.13 (n = 3) %
- % Toxicity (cortical cell cultures [3]; NAAG 100 μM): −2.87 ± 0.78 (n = 3) %
- % Toxicity (cortical cell cultures [3]; NAAG 300 μM): −2.09 ± 0.48 (n = 3) %
- % Toxicity (cortical cell cultures [3]; NAAG 1 mM): 0.26 ± 1.11 (n = 3) %
- % Toxicity (cortical cell cultures [3]; NAAG 3 mM): 16.83 ± 8.76 (n = 3) %
- ChAT Activity (% of Control) ([4]; Table XII, THA (100 μM) and 1 nM, 14 days): −23.9 ± 18.6 % of Control
- ChAT Activity (% of Control) ([4]; Table XII, THA (100 μM) and 10 nM, 14 days): 23.1 ± 12.5 % of Control
- ChAT Activity (% of Control) ([4]; Table XII, THA (100 μM) and 100 nM, 14 days): 87.5 ± 21.7 % of Control
- ChAT Activity (% of Control) ([4]; Table XII, THA (100 μM) and 1 μM, 14 days): 187.7 ± 32.8 % of Control
- ChAT Activity (% of Control) ([4]; Table XII, THA (100 μM) and 10 μM, 14 days): 128.7 ± 17.2 % of Control
- protection of the cultures from THA toxicity (in words) ([4]; co-incubation with THA, 100 nM-10 μM): significantly protected
- ChAT Activity (% of Control) ([4]; compound alone): 108 ± 18.4 % of Control
- ChAT Activity (% of Control) ([4]; compound and THA): 121 + 18.8 % of Control
